According to ChEMBL document CHEMBL1201862, “PubChem BioAssay data set” (2004):
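Compound exposure: 48 hours, 5 concentrations, 96-well plates. GI50 is the concentration that inhibits growth by half.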 Calls of active or inactive are those of the source. Rule as the data show it: active = GI50 up to about 1.1 µM and inactive = higher.

Columns and labels:
Assay in all cases: DTP human tumour cell line panel, 48 h
DMS-114 = tested on: DMS-114
KM-20L2 = tested on: KM-20L2
DMS-273 = tested on: DMS-273
XF498 = tested on: XF498
LXFL 529 = tested on: LXFL 529
HOP-18 = tested on: HOP-18
DLD-1 = tested on: DLD-1
RXF 631 = tested on: RXF 631
SNB-78 = tested on: SNB-78

Measured: GI50

COc1ccc(CC(C)N)cc1 (centres undefined) [PARA-METHOXYAMPHETAMINE]
inactive: DMS-114 > 100 µM | KM-20L2 > 100 µM | DMS-273 > 100 µM | XF498 > 100 µM | LXFL 529 > 100 µM | HOP-18 > 100 µM | DLD-1 > 100 µM | RXF 631 > 100 µM | SNB-78 > 100 µM
